Reference: patent publication US20260042731A1, “(2,4-DICHLOROPHENOXY)ACETIC ACID ANALOGS” (CORTEVA AGRISCIENCE LLC, priority 2022, published 2026)
Read-outs that look alike come from different tables or passages of the source.

How the values were obtained:
[1] = system: glyphosate resistant Conyza canadensis (L.) (ERICA), horseweed; assay: Postemergence herbicide evaluation, growth of Conyza canadensis (ERICA); type: in vivo; conditions: Erigeron canadensis, post-emergence, percent reduction in plant size relative to untreated control, read-out: Ave. ERICA; for pest or weed control at 280 g/ha: 280 g ae/ha; for pest or weed control at 560 g/ha: 560 g ae/ha
[2] = system: Corn (ZEAMX); assay: Greenhouse post-emergence mixture trials, percent visual control; type: in vivo; conditions: ZEAMX, 21 DAA; for plant injury at 560 g/ha / plant injury at 1120 g/ha: Zea mays, post-emergence, 504 h; for plant injury at 560 g/ha: compound 560 g ae/ha
[3] = system: Ambrosia artemisiifolia (AMBEL), common ragweed; assay: Postemergence herbicide evaluation, growth of Ambrosia artemisiifolia (AMBEL); type: in vivo; conditions: Ambrosia artemisiifolia, post-emergence, percent reduction in plant size relative to untreated control, read-out: AVE. AMBEL; for pest or weed control at 280 g/ha: 280 g ae/ha; for pest or weed control at 560 g/ha: 560 g ae/ha
[4] = system: Amaranthus rudis (AMATA), tall water hemp; assay: Postemergence herbicide evaluation, growth of Amaranthus rudis (AMATA); type: in vivo; conditions: Amaranthus tuberculatus, post-emergence, percent reduction in plant size relative to untreated control, read-out: Ave. AMATA; for pest or weed control at 280 g/ha: 280 g ae/ha; for pest or weed control at 560 g/ha: 560 g ae/ha
[5] = system: Chenopodium album (CHEAL), common lambsquarters; assay: Postemergence herbicide evaluation, growth of Chenopodium album (CHEAL); type: in vivo; conditions: Chenopodium album, post-emergence, percent reduction in plant size relative to untreated control, read-out: Ave. CHEAL; for pest or weed control at 280 g/ha: 280 g ae/ha; for pest or weed control at 560 g/ha: 560 g ae/ha
[6] = system: Velvetleaf (ABUTH); assay: Greenhouse post-emergence mixture trials, percent visual control; type: in vivo; conditions: ABUTH, 21 DAA; for pest or weed control at 560 g/ha / pest or weed control at 1120 g/ha: Abutilon theophrasti, post-emergence, 504 h; for pest or weed control at 560 g/ha: compound 560 g ae/ha; for pest or weed control at 1120 g/ha: compound 1120 g ae/ha, read-out: % Control
[7] = system: Common Lambsquarters (CHEAL); assay: as above; type: in vivo; conditions: CHEAL, 21 DAA; for pest or weed control at 560 g/ha / pest or weed control at 1120 g/ha: Chenopodium album, post-emergence, 504 h; for pest or weed control at 1120 g/ha: read-out: % Control
[8] = system: Abutilon theophrasti (ABUTH), velvetleaf; assay: Postemergence herbicide evaluation, growth of Abutilon theophrasti (ABUTH); type: in vivo; conditions: Abutilon theophrasti, post-emergence, percent reduction in plant size relative to untreated control, read-out: AVE. ABUTH; for pest or weed control at 280 g/ha: 280 g ae/ha; for pest or weed control at 560 g/ha: 560 g ae/ha
[9] = system: weeds (ABUTH, AMATA, AMBEL, CHEAL, ERICA); assay: Postemergence herbicide evaluation, overall average % weed control across ABUTH, AMATA, AMBEL, CHEAL, ERICA; type: in vivo; conditions: post-emergence, average over the five weeds, read-out: Overall Ave % Weed Control; for pest or weed control at 280 g/ha: 280 g ae/ha; for pest or weed control at 560 g/ha: 560 g ae/ha
[10] = Volatility of compounds measured by thermogravimetric analysis (TGA); type: physicochemical
[11] = compound 1120 g ae/ha, no mixing partner, Trial Bridge 3
[12] = Trial Bridge 1, compound 1120 g ae/ha, no mixing partner
[13] = no mixing partner, Trial Bridge 3
[14] = Trial Bridge 1, mixing partner none
[15] = Trial Bridge 2, no mixing partner
[16] = Trial Bridge 1, compound 560 g ae/ha + Arylex 5 g ai or ae/ha
[17] = Trial Bridge 1, compound 560 g ae/ha + Mesotrione 150 g ai or ae/ha
[18] = Trial Bridge 1, compound 1120 g ae/ha + Glufosinate 600 g ai or ae/ha
[19] = Trial Bridge 1, compound 1120 g ae/ha + Mesotrione 150 g ai or ae/ha
[20] = Trial Bridge 2, compound 560 g ae/ha + Saflufenacil 25 g ai or ae/ha
[21] = Trial Bridge 2, compound 560 g ae/ha + Saflufenacil 75 g ai or ae/ha
[22] = Trial Bridge 2, compound 560 g ae/ha + Trifludimoxazin 50 g ai or ae/ha
[23] = Trial Bridge 2, compound 1120 g ae/ha + Saflufenacil 25 g ai or ae/ha
[24] = Trial Bridge 2, compound 1120 g ae/ha + Saflufenacil 75 g ai or ae/ha
[25] = Trial Bridge 2, compound 1120 g ae/ha + Trifludimoxazin 12.5 g ai or ae/ha
[26] = Trial Bridge 2, compound 1120 g ae/ha + Trifludimoxazin 50 g ai or ae/ha
[27] = Trial Bridge 1, compound 560 g ae/ha, no mixing partner

## O=C(COc1ccc(Cl)cc1Cl)NOCc1ccccc1 [Compound D8, N-(Benzyloxy)-2-(2,4-dichlorophenoxy)acetamide]
[1]; 168 h, 7 DAA
  pest or weed control at 280 g/ha: 68%
  pest or weed control at 560 g/ha: 70%
[1]; 336 h, 14 DAA
  pest or weed control at 280 g/ha: 88%
  pest or weed control at 560 g/ha: 85%
[1]; 504 h, 21 DAA
  pest or weed control at 280 g/ha: 95%
  pest or weed control at 560 g/ha: 92%
[2]; [11]
  % Control: 5%
  plant injury at 1120 g/ha: 5%
[2]; Trial Bridge 1, no mixing partner
  plant injury at 560 g/ha: 5%
[2]; [12]
  plant injury at 1120 g/ha: 5%
[2]; Trial Bridge 2, mixing partner none
  plant injury at 560 g/ha: 5%
[2]; [13]
  plant injury at 560 g/ha: 10%
[3]; 168 h, 7 DAA
  pest or weed control at 280 g/ha: 68%
  pest or weed control at 560 g/ha: 75%
[3]; 336 h, 14 DAA
  pest or weed control at 280 g/ha: 96%
  pest or weed control at 560 g/ha: 95%
[3]; 504 h, 21 DAA
  pest or weed control at 280 g/ha: 99%
  pest or weed control at 560 g/ha: 99%
[4]; 168 h, 7 DAA
  pest or weed control at 280 g/ha: 68%
  pest or weed control at 560 g/ha: 75%
[4]; 336 h, 14 DAA
  pest or weed control at 280 g/ha: 85%
  pest or weed control at 560 g/ha: 85%
[4]; 504 h, 21 DAA
  pest or weed control at 280 g/ha: 73%
  pest or weed control at 560 g/ha: 83%
[5]; 168 h, 7 DAA
  pest or weed control at 280 g/ha: 63%
  pest or weed control at 560 g/ha: 63%
[5]; 336 h, 14 DAA
  pest or weed control at 280 g/ha: 65%
  pest or weed control at 560 g/ha: 83%
[5]; 504 h, 21 DAA
  pest or weed control at 280 g/ha: 75%
  pest or weed control at 560 g/ha: 97%
[6]; compound 560 g ae/ha + Sulfentrazone 130 g ai/ha, Trial Bridge 3
  % Control: 100%
[6]; compound 1120 g ae/ha + Sulfentrazone 130 g ai/ha, Trial Bridge 3
  % Control: 100%
[6]; compound 1120 g ae/ha + Sulfentrazone 347 g ai/ha, Trial Bridge 3
  % Control: 100%
[6]; [13]
  pest or weed control at 560 g/ha: 90%
  pest or weed control at 1120 g/ha: 95%
[6]; [14]
  pest or weed control at 560 g/ha: 100%
  pest or weed control at 1120 g/ha: 100%
[6]; [15]
  pest or weed control at 560 g/ha: 100%
  pest or weed control at 1120 g/ha: 100%
[6]; [16]
  % Control: 100%
[6]; Trial Bridge 1, compound 560 g ae/ha + Glyphosate 1120 g ai or ae/ha
  % Control: 100%
[6]; [17]
  % Control: 100%
[6]; Trial Bridge 1, compound 560 g ae/ha + diclosulam 35 g ai or ae/ha
  % Control: 100%
[6]; Trial Bridge 1, compound 1120 g ae/ha + Arylex 5 g ai or ae/ha
  % Control: 100%
[6]; [18]
  % Control: 100%
[6]; Trial Bridge 1, compound 1120 g ae/ha + Glyphosate 1120 g ai or ae/ha
  % Control: 100%
[6]; [19]
  % Control: 100%
[6]; Trial Bridge 1, compound 1120 g ae/ha + diclosulam 35 g ai or ae/ha
  % Control: 100%
[6]; [20]
  % Control: 100%
[6]; [21]
  % Control: 100%
[6]; [22]
  % Control: 100%
[6]; [23]
  % Control: 100%
[6]; [24]
  % Control: 100%
[6]; [25]
  % Control: 100%
[6]; [26]
  % Control: 100%
[7]; [20]
  % Control: 100%
[7]; [21]
  % Control: 100%
[7]; Trial Bridge 2, compound 560 g ae/ha + Trifludimoxazin 12.5 g ai or ae/ha
  % Control: 100%
[7]; [22]
  % Control: 100%
[7]; [23]
  % Control: 100%
[7]; [24]
  % Control: 100%
[7]; [25]
  % Control: 100%
[7]; [26]
  % Control: 100%
[7]; Trial Bridge 3, compound 560 g ae/ha + Sulfentrazone 130 g ai/ha
  % Control: 100%
[7]; Trial Bridge 3, compound 560 g ae/ha + Sulfentrazone 347 g ai/ha
  % Control: 100%
[7]; Trial Bridge 3, compound 1120 g ae/ha + Sulfentrazone 130 g ai/ha
  % Control: 100%
[7]; Trial Bridge 2, compound 560 g ae/ha, no mixing partner
  pest or weed control at 560 g/ha: 98%
[7]; Trial Bridge 2, compound 1120 g ae/ha, no mixing partner
  pest or weed control at 1120 g/ha: 100%
[7]; Trial Bridge 3, compound 560 g ae/ha, no mixing partner
  pest or weed control at 560 g/ha: 100%
[7]; Trial Bridge 3, compound 1120 g ae/ha, no mixing partner
  pest or weed control at 1120 g/ha: 100%
[7]; [27]
  pest or weed control at 560 g/ha: 95%
  % Control: 95%
[7]; [12]
  pest or weed control at 1120 g/ha: 100%
[7]; [16]
  % Control: 100%
[7]; [17]
  % Control: 100%
[7]; [18]
  % Control: 100%
[7]; [19]
  % Control: 100%
[8]; 168 h, 7 DAA
  pest or weed control at 280 g/ha: 83%
  pest or weed control at 560 g/ha: 83%
[8]; 336 h, 14 DAA
  pest or weed control at 280 g/ha: 93%
  pest or weed control at 560 g/ha: 91%
[8]; 504 h, 21 DAA
  pest or weed control at 280 g/ha: 99%
  pest or weed control at 560 g/ha: 96%
[9]; 168 h, 7 DAA
  pest or weed control at 280 g/ha: 70%
  pest or weed control at 560 g/ha: 73%
[9]; 336 h, 14 DAA
  pest or weed control at 280 g/ha: 85%
  pest or weed control at 560 g/ha: 88%
[9]; 504 h, 21 DAA
  pest or weed control at 280 g/ha: 88%
  pest or weed control at 560 g/ha: 93%
[10]
  TGA Data (rate of weight loss, volatility): 0.04 µg/min
